This is an account of results in ChEMBL document CHEMBL3352039, “Semisynthesis of triptolide analogues: effect of B-ring substituents on cytotoxic activities” (Bioorg Med Chem Lett, 2014).

Each structure is given as a SMILES string.

One test deals with U-251. The test can be described thus: Cytotoxicity against human U251 cells assessed as inhibition of cell proliferation by sulforhodamine B assay. Type of test: functional, cell-based.
Test [1] in a line: Cytotoxicity against human PC3 cells assessed as inhibition of cell proliferation by sulforhodamine B assay. The settings on record: PC-3. Type of test: functional, cell-based.

`CC(C)[C@]12O[C@H]1[C@@H]1O[C@@]13[C@@]1(C)CCC4=C(COC4=O)[C@]1(O)[C@@H](O)[C@@H]1O[C@@]13C2=O`: the concentration for half-maximal inhibition (IC50) in the test on U-251 worked out at 2970 nM; in test [1], 2270 nM.

As to `CC(C)[C@]12O[C@H]1[C@@H]1O[C@@]13[C@@]1(C)CCC4=C(COC4=O)[C@]1(O)C[C@@H]1O[C@@]13[C@]21CO1`, the IC50 in the test on U-251 came out at 5470 nM; in test [1], 2610 nM.

For the compound `CC(C)[C@]12O[C@H]1[C@@H]1O[C@@]13[C@@]1(C)CCC4=C(COC4=O)[C@]1(O)C[C@@H]1O[C@@]13C2=O`, the IC50 was 1030 nM in the test on U-251 and 377 nM in test [1].

For the compound `CC(C)[C@]12O[C@H]1[C@@H]1O[C@@]13[C@@]1(C)CCC4=C(COC4=O)[C@]1(Br)C[C@@H]1O[C@@]13[C@]21CO1`, the figures for the IC50 (with U-251; in test [1]) were 2040 nM and 893 nM, respectively.

Consider `CC(C)[C@]12O[C@H]1[C@@H]1O[C@@]13[C@@]1(C)CCC4=C(COC4=O)[C@@]14O[C@H]4[C@@H]1O[C@@]13C2=O`, for which the IC50 with U-251 came out at 197 nM; in test [1] it was 4050 nM.

For `CC(C)[C@]12O[C@H]1[C@@H]1O[C@]13[C@]1(O[C@H]1[C@H](O)[C@@]1(O)C4=C(CC[C@]31C)C(=O)OC4)[C@@H]2O`, the figures for the IC50 (with U-251; in test [1]) were 1580 nM and 589 nM, respectively.

With `CC(C)[C@]12O[C@H]1[C@@H]1O[C@@]13[C@@]1(C)CCC4=C(COC4=O)[C@]1(Cl)C[C@@H]1O[C@@]13C2=O`, the IC50 with U-251 was determined as 170 nM; in test [1], 85 nM.

As for `CC(C)[C@]12O[C@H]1[C@@H]1O[C@]13[C@]1(O[C@H]1C=C1C4=C(CC[C@@]13C)C(=O)OC4)[C@@H]2O`, the IC50 is 718 nM with U-251 and 126 nM in test [1].

Turning to `CC(C)[C@]12O[C@H]1[C@@H]1O[C@]13[C@]1(O[C@H]1C[C@@]1(Br)C4=C(CC[C@]31C)C(=O)OC4)[C@@H]2O`, the IC50 in the test with U-251 worked out at 796 nM; in test [1], 333 nM.

Take `CC(C)[C@]12O[C@H]1[C@@H]1O[C@@]13[C@@]1(C)CCC4=C(COC4=O)[C@]1(Br)C[C@@H]1O[C@@]13C2=O`: the IC50 in the test on U-251 was 558 nM; in test [1] it was 104 nM.

Regarding `CC(C)[C@]12O[C@H]1[C@@H]1O[C@]13[C@@]1(O[C@@H]1C[C@H]1C4=C(CC[C@@]13C)C(=O)OC4)[C@@H]2O`, the IC50 (in the test with U-251; in test [1]) was more than 10000 nM in each case.

As to `CC(C)[C@]12O[C@H]1[C@@H]1O[C@@]13[C@@]1(C)CCC4=C(COC4=O)[C@]1(F)C[C@@H]1O[C@@]13C2=O`, the IC50 in the test with U-251 worked out at 429 nM; in test [1], 223 nM.

Turning to `CC(C)[C@]12O[C@H]1[C@@H]1O[C@]13[C@]1(O[C@H]1[C@H](O)[C@@]1(O)C4=C(CC[C@]31C)C(=O)OC4)[C@H]2O`, the IC50 (in the test on U-251; in test [1]) was more than 10000 nM in each case.

As for `CC(C)[C@]12O[C@H]1[C@@H]1O[C@]13[C@]1(O[C@H]1C[C@@]1(O)C4=C(CC[C@]31C)C(=O)OC4)[C@@H]2O`, the results for the IC50 (in the test with U-251; in test [1]) were 488 nM and 275 nM, respectively.

For `CC(C)[C@]12O[C@H]1[C@@H]1O[C@@]13[C@@]1(C)CCC4=C(COC4=O)[C@@H]1C[C@@H]1O[C@@]13C2=O` [TRIPTONIDE], the half-inhibitory concentration (IC50) in the test with U-251 amounted to 31 nM; in test [1], 26 nM.

With `CC(C)[C@]12O[C@H]1[C@@H]1O[C@]13[C@]1(O[C@H]1C[C@H]1C4=C(CC[C@@]13C)C(=O)OC4)[C@@H]2O` [TRIPTOLIDE], the 50% inhibitory concentration (IC50) is 33 nM in the test with U-251 and 20 nM in test [1].

`CC(C)[C@]12O[C@H]1[C@@H]1O[C@@]13[C@@]1(C)CCC4=C(COC4=O)[C@]1(Cl)C[C@@H]1O[C@@]13[C@]21CO1`: the half-inhibitory concentration (IC50) came to 925 nM in the test on U-251 and 871 nM in test [1].

Consider `CC(C)[C@]12O[C@H]1[C@@H]1O[C@]13C(=CC[C@H]1C4=C(CC[C@@]13C)C(=O)OC4)[C@@H]2O`, for which the 50% inhibitory concentration (IC50) (in the test with U-251; in test [1]) was more than 10000 nM in each case.

For `CC(C)[C@]12O[C@H]1[C@@H]1O[C@@]13[C@@]1(C)CCC4=C(COC4=O)[C@@]1(O)[C@@H](O)[C@@H]1O[C@@]13C2=O`, the concentration for half-maximal inhibition (IC50) was found to be 9860 nM in the test on U-251 and 5040 nM in test [1].

As for `CC(C)[C@]12O[C@H]1[C@@H]1O[C@@]13[C@@]1(C)CCC4=C(COC4=O)C1=C[C@@H]1O[C@@]13C2=O`, the results for the IC50 (with U-251; in test [1]) were 1630 nM and 171 nM, respectively.

With `CC(C)[C@]12O[C@H]1[C@@H]1O[C@]13[C@]1(O[C@H]1C=C1C4=C(CC[C@@]13C)C(=O)OC4)[C@H]2O`, the half-maximal inhibitory concentration (IC50) was determined as 5040 nM in the test on U-251 and 3220 nM in test [1].
